Source: ChEMBL document CHEMBL4043296 (J Med Chem, 2018)
In brackets after ≈: the same amount, converted by molar mass.

Key:
[1] = target: T1, Muscarinic acetylcholine receptor M4 (Homo sapiens, UniProt P08173); assay: Agonist activity at human SP/Myc epitope-tagged muscarinic M4 receptor expressed in HEK293T cells assessed as RLuc8-fused Galphaq activation after 2 mins by BRET assay; format: cell-based, HEK-293T
T1 sequence (P08173 whole entry): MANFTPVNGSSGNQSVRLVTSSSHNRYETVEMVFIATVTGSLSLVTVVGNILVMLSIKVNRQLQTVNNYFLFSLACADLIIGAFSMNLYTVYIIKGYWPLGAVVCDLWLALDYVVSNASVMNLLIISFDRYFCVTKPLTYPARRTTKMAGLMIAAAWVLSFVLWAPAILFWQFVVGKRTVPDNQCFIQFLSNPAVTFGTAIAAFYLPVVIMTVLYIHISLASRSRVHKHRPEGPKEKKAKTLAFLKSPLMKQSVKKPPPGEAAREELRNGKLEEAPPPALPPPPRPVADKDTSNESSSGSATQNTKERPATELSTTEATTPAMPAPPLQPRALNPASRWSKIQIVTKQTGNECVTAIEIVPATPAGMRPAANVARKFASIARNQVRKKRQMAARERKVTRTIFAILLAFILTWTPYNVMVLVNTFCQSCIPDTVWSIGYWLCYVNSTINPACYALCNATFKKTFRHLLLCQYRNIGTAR

[2] = target: Beta-1 adrenergic receptor (Homo sapiens, UniProt P08588); assay: Displacement of [3H]CGP12177 from human recombinant beta1 adrenergic receptor expressed in HEK293 cell membranes after 90 mins by beta counting method
Chain of Beta-1 adrenergic receptor (P08588 whole entry): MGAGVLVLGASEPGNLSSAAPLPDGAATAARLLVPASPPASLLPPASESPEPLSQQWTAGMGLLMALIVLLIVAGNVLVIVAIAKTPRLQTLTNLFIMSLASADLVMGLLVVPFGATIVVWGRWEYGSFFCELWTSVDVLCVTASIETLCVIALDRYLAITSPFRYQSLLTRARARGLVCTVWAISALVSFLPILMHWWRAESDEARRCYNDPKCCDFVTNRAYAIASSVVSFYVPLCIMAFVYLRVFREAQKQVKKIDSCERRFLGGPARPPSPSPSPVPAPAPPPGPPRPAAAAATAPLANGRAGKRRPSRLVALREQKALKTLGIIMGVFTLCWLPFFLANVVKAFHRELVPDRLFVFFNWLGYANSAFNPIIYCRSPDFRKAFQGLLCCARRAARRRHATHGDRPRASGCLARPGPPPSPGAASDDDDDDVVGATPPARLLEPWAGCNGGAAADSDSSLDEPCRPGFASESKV

[3] = target: D(3) dopamine receptor (Homo sapiens, UniProt P35462); assay: Displacement of [3H]N-methylspiperone from human dopamine D3 receptor expressed in HEK293 cell membranes after 1 hr by scintillation counting method
Chain of D(3) dopamine receptor (P35462 whole entry): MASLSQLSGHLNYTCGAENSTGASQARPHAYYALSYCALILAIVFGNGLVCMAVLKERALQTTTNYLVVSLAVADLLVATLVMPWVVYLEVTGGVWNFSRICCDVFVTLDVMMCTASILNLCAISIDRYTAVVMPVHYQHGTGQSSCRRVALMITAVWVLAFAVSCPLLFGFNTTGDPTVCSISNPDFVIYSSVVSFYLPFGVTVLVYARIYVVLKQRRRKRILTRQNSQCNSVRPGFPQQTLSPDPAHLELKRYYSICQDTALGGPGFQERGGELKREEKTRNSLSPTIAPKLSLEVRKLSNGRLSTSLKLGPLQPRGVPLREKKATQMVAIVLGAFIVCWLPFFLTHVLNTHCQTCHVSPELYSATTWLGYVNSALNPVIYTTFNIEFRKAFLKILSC

[4] = target: D(2) dopamine receptor (Homo sapiens, UniProt P14416); assay: Displacement of [3H]N-methylspiperone from human dopamine D2 receptor expressed in HEK293 cell membranes after 1 hr by scintillation counting method
Chain of D(2) dopamine receptor (P14416 whole entry): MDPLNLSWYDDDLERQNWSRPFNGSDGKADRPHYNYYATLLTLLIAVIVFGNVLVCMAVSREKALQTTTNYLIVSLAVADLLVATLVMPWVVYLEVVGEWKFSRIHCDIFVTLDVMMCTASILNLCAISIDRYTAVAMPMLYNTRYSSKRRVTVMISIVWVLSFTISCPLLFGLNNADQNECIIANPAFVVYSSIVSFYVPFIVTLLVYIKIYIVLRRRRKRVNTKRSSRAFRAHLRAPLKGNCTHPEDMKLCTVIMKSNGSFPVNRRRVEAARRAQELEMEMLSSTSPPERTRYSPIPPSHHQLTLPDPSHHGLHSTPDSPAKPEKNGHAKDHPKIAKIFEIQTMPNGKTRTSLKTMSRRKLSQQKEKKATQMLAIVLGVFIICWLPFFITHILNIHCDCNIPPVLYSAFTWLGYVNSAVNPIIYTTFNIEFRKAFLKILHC

[5] = target: Sodium-dependent serotonin transporter (Rattus norvegicus, UniProt P31652); assay: Displacement of [3H]-citalopram from SERT in Sprague-Dawley rat midbrain after 60 mins by scintillation counting method
Chain of Sodium-dependent serotonin transporter (P31652 whole entry): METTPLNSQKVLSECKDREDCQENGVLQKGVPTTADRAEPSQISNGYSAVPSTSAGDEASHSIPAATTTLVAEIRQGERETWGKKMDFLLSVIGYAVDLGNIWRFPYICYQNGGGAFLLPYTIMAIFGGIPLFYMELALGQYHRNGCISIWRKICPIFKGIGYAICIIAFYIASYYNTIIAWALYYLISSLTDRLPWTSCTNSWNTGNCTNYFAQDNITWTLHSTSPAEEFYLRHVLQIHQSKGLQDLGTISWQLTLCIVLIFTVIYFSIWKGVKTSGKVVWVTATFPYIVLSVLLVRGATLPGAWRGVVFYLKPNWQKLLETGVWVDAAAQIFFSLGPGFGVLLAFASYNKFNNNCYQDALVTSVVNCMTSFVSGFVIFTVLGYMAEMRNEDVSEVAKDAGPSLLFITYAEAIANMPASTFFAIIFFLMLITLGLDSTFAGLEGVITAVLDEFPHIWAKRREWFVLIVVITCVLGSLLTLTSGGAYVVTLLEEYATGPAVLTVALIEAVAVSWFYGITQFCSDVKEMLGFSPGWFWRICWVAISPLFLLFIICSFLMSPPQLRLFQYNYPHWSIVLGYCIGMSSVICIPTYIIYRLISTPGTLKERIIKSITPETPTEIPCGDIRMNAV

[6] = Kinetic solubility of the compound at pH 7.4 after 24 hrs by UPLC/UV/TOF-MS method; format: physicochemical; conditions: buffer, read-out: Kinetic_solubility
[7] = Intrinsic clearance in mouse liver microsomes assessed per mg of protein at 0.5 uM preincubated for 30 mins followed by NADPH addition measured after 30 mins by HPLC-MS/MS method; format: ADME, microsome; conditions: read-out: CLH
[8] = tested on: MDR1; assay: Apparent passive permeability across apical to basolateral side in MDCK2 cells expressing MDR1 at 3 uM after 60 mins by mass spectroscopy; format: ADME, cell-based, Canis lupus familiaris, MDCK-II; conditions: dog, MDCK-MDR1
[9] = target: T2, Muscarinic acetylcholine receptor M2 (Homo sapiens, UniProt P08172); assay: Displacement of [3H]NMS from human muscarinic M2 receptor expressed in CHO cell membranes after 2 hrs by liquid scintillation counting method
T2 sequence (P08172 whole entry): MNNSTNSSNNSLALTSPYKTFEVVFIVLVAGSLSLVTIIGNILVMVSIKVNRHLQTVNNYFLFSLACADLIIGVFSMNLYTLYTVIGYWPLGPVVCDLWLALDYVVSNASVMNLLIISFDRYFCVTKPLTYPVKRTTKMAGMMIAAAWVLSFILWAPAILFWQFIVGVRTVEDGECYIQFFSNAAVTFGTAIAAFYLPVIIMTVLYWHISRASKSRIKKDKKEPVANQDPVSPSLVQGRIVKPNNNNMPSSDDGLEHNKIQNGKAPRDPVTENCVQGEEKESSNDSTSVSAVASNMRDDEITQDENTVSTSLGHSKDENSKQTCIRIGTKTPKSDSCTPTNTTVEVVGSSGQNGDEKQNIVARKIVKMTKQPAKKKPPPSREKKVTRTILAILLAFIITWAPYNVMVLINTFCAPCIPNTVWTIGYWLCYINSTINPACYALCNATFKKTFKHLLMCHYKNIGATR

[10] = target: T3, D(4) dopamine receptor (Homo sapiens, UniProt P21917); assay: Antagonist activity at human SP/Myc epitope-tagged dopamine D4 receptor expressed in HEK293T cells assessed as inhibition of dopamine-induced mVenus-fused beta-arrestin2 recruitment preincubated for 15 mins followed by dopamine induction measured after 2 mins by BRET assay; format: cell-based, HEK-293T
T3 sequence (P21917 whole entry): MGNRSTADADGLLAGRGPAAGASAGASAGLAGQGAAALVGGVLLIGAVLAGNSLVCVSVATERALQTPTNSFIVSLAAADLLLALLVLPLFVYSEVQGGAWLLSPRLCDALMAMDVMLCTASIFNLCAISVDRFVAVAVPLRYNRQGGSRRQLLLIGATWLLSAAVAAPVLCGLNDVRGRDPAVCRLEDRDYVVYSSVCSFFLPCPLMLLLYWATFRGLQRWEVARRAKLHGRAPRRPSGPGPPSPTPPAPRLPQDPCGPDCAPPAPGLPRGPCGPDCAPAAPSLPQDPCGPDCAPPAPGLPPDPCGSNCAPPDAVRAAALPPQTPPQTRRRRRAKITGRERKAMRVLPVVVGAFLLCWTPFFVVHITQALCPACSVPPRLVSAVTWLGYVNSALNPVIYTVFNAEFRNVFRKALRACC

[11] = Fraction unbound in human plasma at 0.5 uM by equilibrium dialysis method; format: ADME, cell-free
[12] = target: T4, Alpha-1B adrenergic receptor (Homo sapiens, UniProt P35368); assay: Displacement of [3H]prazosin from human recombinant alpha-1B adrenergic receptor expressed in CHO cell membranes after 30 mins by liquid scintillation counting method
T4 sequence (P35368 whole entry): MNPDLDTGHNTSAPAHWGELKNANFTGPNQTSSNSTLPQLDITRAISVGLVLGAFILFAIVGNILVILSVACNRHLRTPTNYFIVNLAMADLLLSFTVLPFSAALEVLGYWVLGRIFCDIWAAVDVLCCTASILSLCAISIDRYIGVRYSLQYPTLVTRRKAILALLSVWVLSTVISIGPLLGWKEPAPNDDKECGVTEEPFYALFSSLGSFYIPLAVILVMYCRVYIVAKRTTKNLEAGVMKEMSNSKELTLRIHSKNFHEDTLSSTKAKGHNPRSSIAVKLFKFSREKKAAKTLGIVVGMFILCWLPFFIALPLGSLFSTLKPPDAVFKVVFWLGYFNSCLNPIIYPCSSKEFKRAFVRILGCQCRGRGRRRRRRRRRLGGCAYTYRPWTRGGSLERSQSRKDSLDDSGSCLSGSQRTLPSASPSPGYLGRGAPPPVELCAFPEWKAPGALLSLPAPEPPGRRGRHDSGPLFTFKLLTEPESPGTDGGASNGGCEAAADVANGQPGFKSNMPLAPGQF

[13] = Fraction unbound in mouse plasma at 0.5 uM by equilibrium dialysis method; format: ADME, cell-free

Work on `O=C1CCc2ccccc2N1CCCN1CCC(Cc2ccccc2)CC1` yielded an EC50 [1] of 148 nM, a Ki [2] of 10200 nM and a Ki [3] of 1820 nM. It also gave a Ki [4] of 912 nM, a Ki [5] of 46.8 nM and a solubility kinetic at 24 h [6] of 477 µM (≈ 173 µg/mL). The microsomal CLint at 0.5 µM [7] was 396 µL/min/mg, the Papp A→B at 1 h, 3 µM [8] was 10.9 ×10⁻⁶ cm/s and the Ki [9] was 794 nM. The IC50 [10] was 575 nM, the fraction unbound at 0.5 µM [11] was 0.057 and the Ki [12] was 224 nM. For the same compound, the fraction unbound at 0.5 µM [13] was 0.1.
With `O=C1CCc2ccccc2N1CCCN1CCN(c2ccccc2)CC1` the EC50 [1] was 589 nM, the Ki [2] was 32400 nM and the Ki [3] was 1320 nM. For the same compound, the Ki [4] was 1100 nM, the Ki [5] was 5010 nM and the solubility kinetic at 24 h [6] was 520 µM (≈ 182 µg/mL). It also gave a microsomal CLint at 0.5 µM [7] of 159 µL/min/mg, a Papp A→B at 1 h, 3 µM [8] of 16.2 ×10⁻⁶ cm/s and a Ki [9] of 16600 nM. For the same compound, the IC50 [10] was 0.724 nM, the fraction unbound at 0.5 µM [11] was 0.033 and the Ki [12] was 74.1 nM. For the same compound, the fraction unbound at 0.5 µM [13] was 0.097.
